Test results from publication PMC3763632, “Radiosynthesis and Radiotracer Properties of a 7-(2-[^18F]Fluoroethoxy)-6-methoxypyrrolidinylquinazoline for Imaging of Phosphodiesterase 10A with PET” (Pharmaceuticals, 2012).

Experiments:
[1] = Radioligand stability in vivo (metabolism in brain, plasma, urine); design: species or system CD-1 mice; settings: mice
Experimental: The metabolic fate of [^18F]IV was investigated in brain, plasma and urine samples of CD1-mice at 30 and 60 min p.i. Proteins were precipitated with acetonitrile and extraction efficiencies of 96.4% for brain homogenate, 90.2% for plasma and 89.4% for urine were obtained, indicating sufficient recovery rates. The supernatants of each material were analyzed by radio-TLC and analytical radio-HPLC, whereof two representative chromatograms are given in Figure 4.
A single lipophilic metabolite was detected representing only 4.2% of total radioactivity at 60 min p.i. Therefore a major impairment of the imaging properties of [^18F]IV in vivo should not be expected. The same radiometabolite was detected in plasma with 23.5% and 22.0% of the total radioactivity at 30 and 60 min p.i., while the parent radiotracer [^18F]IV accounted for 69.5% and 70.1%, respectively.
In urine the metabolic profile is distinctly different. While the non-metabolized [^18F]IV and the single plasma- and brain-related radiometabolite accounted for only ~1% of the total radioactivity in urine, further radiometabolites were detected. The main three of them represent 11%, 12% and 44% of the total radioactivity. In contrast to brain and plasma samples, in urine free [^18F]fluoride could be detected, although at a low level of only ~5% of total radioactivity.
After injection via the tail vein of ~150 MBq of [^18F]IV in […] isotonic solution, mice were sacrificed at 30 or 60 min p.i. (n = 2 per time). Urine and blood samples were obtained, and whole brains were isolated and homogenized in 50 mM TRIS-HCl, pH 7.4/4 °C, in a borosilicate glass cylinder by 10 strokes of a PTFE plunge at a speed of 1,000 rpm using a Potter S Homogenizer (B. Braun Melsungen AG, Germany). Plasma samples were obtained by centrifugation of blood at 2,000 g and 4 °C for 10 min. Extractions of brain homogenate, plasma and urine samples were done by treatment with ice-old acetonitrile (1:5 v/v; 2 min vortex mixing, Vortex-Genie 2, Scientific Industries Inc., NY, USA; 10 min incubation on ice) and centrifugation (6,000 rpm, 4 °C, 5 min; EBA 12R, Andreas Hettich GmbH & Co. KG, Tuttlingen, Germany). The supernatants were stored separately. Sediments of brain and plasma samples were re-suspended in 500 μL ice-cold acetonitrile and extraction was repeated. Supernatants of each specimen were combined and slowly evaporated at 70 °C under nitrogen stream. […]

PDE10A = experiment: In vivo blocking study (pre-injection of PDE10A inhibitor); design: species or system mice
Experimental: The observed slightly increase in the uptake of radioactivity in most organs might be caused by an increase in the free fraction of [^18F]IV in plasma or changes in physiological parameters such as blood flow due to high concentrations of the blocking compounds.
Specificity of brain and in particular striatal uptake of [^18F]IV was investigated in blocking studies by intraperitoneal injection of 10 mg/kg of I [31] […] (n = 3), dissolved in 200 µL saline at 10 min before the radiotracer. Mice were sacrificed at 60 min p.i., and the radioligand uptake was determined as described above. Data listed in table 2 are given as mean values ± standard deviation (SD).

[2] = blocking with 10 mg/kg I, 60 min p.i.
[3] = blocking with 10 mg/kg MP-10, 60 min p.i.

With COc1cc2c(N3CC[C@@H](Oc4cnc5ccccc5n4)C3)ncnc2cc1OCC[18F] [[^18F]IV, (R)-7-(2-[^18F]Fluoroethoxy)-6-methoxy-4-(3-(quinoxalin-2-yloxy)pyrrolidin-1-yl)quinazoline] the “parent [18F]IV, share of total radioactivity” value (“parent [18F]IV, share” for short) ([1]; brain, 30 min p.i.) was 94.3%, the “parent [18F]IV, share” value ([1]; brain, 60 min p.i.) was 93.1% and the “parent [18F]IV, share” value ([1]; plasma, 30 min p.i.) was 69.5%. The “parent [18F]IV, share” value ([1]; plasma, 60 min p.i.) was 70.1%, the “change in accumulated radioactivity in PDE10A-expressing organs after pre-injection of MP-10 or compound I” value (PDE10A; 10 mg/kg i.p. 10 min before radiotracer, 60 min p.i., p > 0.05) was “no significant changes” and the “18F uptake, Adrenals” value (PDE10A; [2]) was 51.1 ± 17.9 % ID/g. The “18F uptake, Bladder” value (PDE10A; [2]) was 2.20 ± 0.49 % ID/g, the “18F uptake, Blood” value (PDE10A; [2]) was 1.72 ± 0.16 % ID/g and the “18F uptake, Brain” value (PDE10A; [2]) was 1.13 ± 0.17 % ID/g. For the same compound, the “18F uptake, Colon” value (PDE10A; [2]) was 1.07 ± 0.22 % ID/g, the “18F uptake, Femurs” value (PDE10A; [2]) was 1.62 ± 0.72 % ID/g and the “18F uptake, Femurs (fl.) (flushed)” value (PDE10A; [2]) was 0.81 ± 0.13 % ID/g. The “18F uptake, Gonads” value (PDE10A; [2]) was 3.30 ± 0.29 % ID/g, the “18F uptake, Heart” value (PDE10A; [2]) was 2.30 ± 0.22 % ID/g and the “18F uptake, Intestine” value (PDE10A; [2]) was 44.3 ± 9.58 % ID/g. For the same compound, the “18F uptake, Kidneys” value (PDE10A; [2]) was 4.01 ± 0.54 % ID/g, the “18F uptake, Liver” value (PDE10A; [2]) was 12.9 ± 1.08 % ID/g and the “18F uptake, Lungs” value (PDE10A; [2]) was 2.62 ± 0.44 % ID/g. The “18F uptake, Muscles” value (PDE10A; [2]) was 1.27 ± 0.25 % ID/g, the “18F uptake, Pancreas” value (PDE10A; [2]) was 2.25 ± 0.26 % ID/g and the “18F uptake, Plasma” value (PDE10A; [2]) was 2.70 ± 0.24 % ID/g. The “18F uptake, Skin” value (PDE10A; [2]) was 2.26 ± 0.82 % ID/g, the “18F uptake, Spleen” value (PDE10A; [2]) was 2.48 ± 0.68 % ID/g and the “18F uptake, Stomach” value (PDE10A; [2]) was 13.8 ± 1.65 % ID/g. For the same compound, the “18F uptake, Striatum” value (PDE10A; [2]) was 1.28 ± 0.27 % ID/g, the “18F uptake, Thymus” value (PDE10A; [2]) was 2.22 ± 0.08 % ID/g and the “18F uptake, Urine” value (PDE10A; [2]) was 18.0 ± 9.26 % ID/g. The “18F uptake, Adrenals” value (PDE10A; [3]) was 36.0 ± 9.51 % ID/g, the “18F uptake, Bladder” value (PDE10A; [3]) was 2.93 ± 0.51 % ID/g and the “18F uptake, Blood” value (PDE10A; [3]) was 1.85 ± 0.50 % ID/g. The “18F uptake, Brain” value (PDE10A; [3]) was 1.30 ± 0.20 % ID/g, the “18F uptake, Colon” value (PDE10A; [3]) was 1.78 ± 0.78 % ID/g and the “18F uptake, Femurs” value (PDE10A; [3]) was 1.73 ± 0.58 % ID/g. For the same compound, the “18F uptake, Femurs (fl.) (flushed)” value (PDE10A; [3]) was 0.92 ± 0.23 % ID/g, the “18F uptake, Gonads” value (PDE10A; [3]) was 4.10 ± 1.41 % ID/g and the “18F uptake, Heart” value (PDE10A; [3]) was 2.89 ± 0.42 % ID/g. For the same compound, the “18F uptake, Intestine” value (PDE10A; [3]) was 14.8 ± 4.16 % ID/g, the “18F uptake, Kidneys” value (PDE10A; [3]) was 5.87 ± 1.56 % ID/g and the “18F uptake, Liver” value (PDE10A; [3]) was 17.7 ± 3.87 % ID/g. The “18F uptake, Lungs” value (PDE10A; [3]) was 2.95 ± 0.86 % ID/g, the “18F uptake, Muscles” value (PDE10A; [3]) was 1.29 ± 0.37 % ID/g and the “18F uptake, Pancreas” value (PDE10A; [3]) was 3.19 ± 0.91 % ID/g. The “18F uptake, Plasma” value (PDE10A; [3]) was 3.34 ± 1.00 % ID/g, the “18F uptake, Skin” value (PDE10A; [3]) was 2.43 ± 0.44 % ID/g and the “18F uptake, Spleen” value (PDE10A; [3]) was 3.00 ± 0.79 % ID/g. The “18F uptake, Stomach” value (PDE10A; [3]) was 14.6 ± 7.83 % ID/g, the “18F uptake, Striatum” value (PDE10A; [3]) was 1.38 ± 0.30 % ID/g and the “18F uptake, Thymus” value (PDE10A; [3]) was 2.55 ± 0.62 % ID/g. The “18F uptake, Urine” value (PDE10A; [3]) was 14.7 ± 7.17 % ID/g.
